Laboratory results as given in patent publication US10633419B2, “Immunomodulators” (BRISTOL-MYERS SQUIBB COMPANY, priority 2014, dated 2020).
Starred links: 1 amine or outer side, 2 acyl side, 3 side chain; linkers in the order of their positions; H or OH if unused. Positions of bridges follow the written chain, without caps; N, C: chain ends. Non-standard residues stand in square brackets, D forms with d. Residues, ends and D or L forms follow the SMILES beside them. Groups on a side chain read outwards from the residue. *: point of attachment. Succinyl(O-RRR-αToc) = Cc1c(C)c2c(c(C)c1OC(=O)CCC(=O)*)CC[C@@](C)(CCC[C@H](C)CCC[C@H](C)CCCC(C)C)O2; δOrn(Nα-Octadecanedioyl) = O=C(O)CCCCCCCCCCCCCCCCC(=O)N[C@@H](CCCN*)C(=O)O; Trp(1-CH2COOH) = N[C@@H](Cc1cn(CC(=O)O)c2ccccc12)C(=O)O; X21 = O=C([C@H](CC1=CC(CCCCCN[*:3])N=N1)N[*:1])[*:2]; X14 = O=C(O)CCCCCCCCCCNC(=O)CCC(=O)NCCCOCCOCCOCCCN*; X9 = O=C(O)CCCCCCCCCCCCCCCCC(=O)N[C@@H](CCN*)C(=O)O; Phe(3,4,5-F3) = N[C@@H](Cc1cc(F)c(F)c(F)c1)C(=O)O; C18 diacid = O=C(O)CCCCCCCCCCCCCCCCC(=O)*; Phe(4-F) = N[C@@H](Cc1ccc(F)cc1)C(=O)O; γGlu = O=C(O)[C@H](CCC(=O)[*:2])N[*:1]; d(cisHyp) = O=C(O)[C@H]1C[C@@H](O)CN1; Gly(octyl) = CCCCCCCC[C@H](N)C(=O)O; Hyp = O=C(O)[C@@H]1C[C@@H](O)CN1; NMeF = CN[C@@H](Cc1ccccc1)C(=O)O; X30 = O=C1NC2CSC(CCCCC(=O)*)C2N1; NMeNle = CCCC[C@H](NC)C(=O)O; PEG4 = NCCOCCOCCOCCOCCC(=O)O; Pip = O=C(O)[C@@H]1CCCCN1; dPip = O=C(O)[C@H]1CCCCN1; NMeA = CN[C@@H](C)C(=O)O; Pra = C#CC[C@H](N)C(=O)O; Dab = NCC[C@H](N)C(=O)O; Dap = NC[C@H](N)C(=O)O

These compounds were tested against T1, PD-L1 (Homo sapiens, UniProt Q9NZQ7) (assay: PD-1/PD-L1 Homogenous Time-Resolved Fluorescence (HTRF) binding assay (PD-1-Ig/PD-L1-His)). Conditions: not given.
T1 construct: hPDL1(19-239)-TVMV-His; made in house; host or cells: HEK293T
T1 sequence (Q9NZQ7 with tags, fused parts or gaps): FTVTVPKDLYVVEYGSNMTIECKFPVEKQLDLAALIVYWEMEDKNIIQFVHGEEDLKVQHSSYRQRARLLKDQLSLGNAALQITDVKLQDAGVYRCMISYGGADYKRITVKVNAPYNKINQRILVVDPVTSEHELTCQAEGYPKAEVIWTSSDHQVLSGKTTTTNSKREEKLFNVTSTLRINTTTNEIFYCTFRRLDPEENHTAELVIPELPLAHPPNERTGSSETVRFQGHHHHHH
In short: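 HTRF competition in dPBS with 0.1% BSA and 0.05% Tween-20: 20 nM PD-1-Ig added after 15 min compound pre-incubation with 10 nM PD-L1-His, then another 15 min. Signal (665/620 nm) after 30 min with APC anti-His (20 nM) and Eu anti-Ig (1 nM).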
Work on `CCCC[C@H]1C(=O)N(C)[C@@H](CCCC)C(=O)N[C@@H](CCC(=O)O)C(=O)N[C@H](C(=O)NCC(=O)N[C@@H](Cc2cn(CCCCCNC(=O)CCC(=O)Oc3c(C)c(C)c4c(c3C)CC[C@@](C)(CCC[C@H](C)CCC[C@H](C)CCCC(C)C)O4)nn2)C(=O)N[C@@H](CC(=O)O)C(N)=O)CSCC(=O)N[C@@H](Cc2ccc(O)cc2)C(=O)N(C)[C@@H](C)C(=O)N[C@@H](CC(=O)O)C(=O)N2CCC[C@H]2C(=O)N[C@@H](Cc2c[nH]cn2)C(=O)N[C@@H](CCCCN)C(=O)N2C[C@H](O)C[C@H]2C(=O)N[C@@H](Cc2c[nH]c3ccccc23)C(=O)N[C@@H](CCCCN)C(=O)N[C@@H](Cc2c[nH]c3ccccc23)C(=O)N1C` [Example 14056] yielded an IC50 of 0.1 to 1.6 µM. With `CCCC[C@H]1C(=O)N(C)[C@@H](CCCC)C(=O)N[C@@H](CCC(=O)O)C(=O)N[C@H](C(=O)NCC(=O)N[C@@H](CC2=CC(CCCCCNC(=O)CCC(=O)Oc3c(C)c(C)c4c(c3C)CC[C@@](C)(CCC[C@H](C)CCC[C@H](C)CCCC(C)C)O4)N=N2)C(=O)NCC(N)=O)CSCC(=O)N[C@@H](Cc2ccc(O)cc2)C(=O)N(C)[C@@H](C)C(=O)N[C@@H](CC(=O)O)C(=O)N2CCC[C@H]2C(=O)N[C@@H](Cc2c[nH]cn2)C(=O)N[C@@H](CCCCN)C(=O)N2C[C@H](O)C[C@H]2C(=O)N[C@@H](Cc2c[nH]c3ccccc23)C(=O)N[C@@H](CCCCN)C(=O)N[C@@H](Cc2c[nH]c3ccccc23)C(=O)N1C` (stereo partly drawn) [Example 14051] ({CH2CO}-Y[NMeA]DPHK[Hyp]WKW[NMeNle][NMeNle]ECG[X21](Succinyl(O-RRR-αToc))G-NH2; thioether N-14) the IC50 was 0.1 to 1.6 µM.

Same assay, conditions: inhibition of PD-1-Ig binding to PD-L1-TVMV-His; value given as range class; read-out: HTRF IC50
With `CCCC[C@H]1C(=O)N(C)[C@@H](CCCC)C(=O)N[C@@H](CC(C)C)C(=O)N[C@H](C(=O)NCC(=O)N[C@@H](CNC(=O)CC[C@H](NC(=O)CCCCCCCCCCCCCCCCC(=O)O)C(=O)O)C(=O)O)CSCC(=O)N[C@@H](Cc2ccc(O)cc2)C(=O)N2CCCC[C@H]2C(=O)N[C@@H](CC(N)=O)C(=O)N2CCC[C@H]2C(=O)N[C@@H](CN)C(=O)N[C@@H](CC(C)C)C(=O)N2C[C@H](O)C[C@H]2C(=O)N[C@@H](Cc2c[nH]c3ccccc23)C(=O)N[C@@H](CCN)C(=O)N[C@@H](Cc2cn(CC(=O)O)c3ccccc23)C(=O)N1C` [Example 13152] ({CH2CO}-Y[Pip]NP[Dap]L[Hyp]W[Dab][Trp(1-CH2COOH)][NMeNle][NMeNle]LCG[Dap]([γGlu-C18 diacid])-OH; thioether N-14) the IC50 was 0.0003 to 0.0099 µM. `CCCC[C@H]1C(=O)N2C[C@H](O)C[C@@H]2C(=O)N[C@@H](CC(=O)O)C(=O)N[C@@H](C(C)C)C(=O)N(C)[C@@H](Cc2ccccc2)C(=O)N[C@@H](Cc2ccc(O)cc2)C(=O)N2CCCC[C@@H]2C(=O)N[C@@H](Cc2c[nH]c3ccccc23)C(=O)N[C@@H](Cc2ccc(O)cc2)C(=O)N[C@@H](CC(C)C)C(=O)N[C@H](C(=O)NCC(=O)NCC(=O)NCC(=O)N[C@@H](CCCCNC(=O)CCOCCOCCOCCOCCNC(=O)CCCCC2SCC3NC(=O)NC32)C(N)=O)CSCC(=O)N[C@@H](Cc2cc(F)c(F)c(F)c2)C(=O)N(C)[C@@H](Cc2ccccc2)C(=O)N1C` (stereo partly drawn) [Example 3626] ({CH2CO}-[Phe(3,4,5-F3)][NMeF][NMeNle][d(cisHyp)]DV[NMeF]Y[dPip]WYLCGGGK([PEG4-X30])-NH2; thioether N-13) was tested, and the IC50 was 0.0003 to 0.0099 µM. Compound `CCCC[C@H]1C(=O)N(C)[C@@H](CCCC)C(=O)N[C@@H](CC(C)C)C(=O)N[C@H](C(=O)NCC(=O)N[C@@H](CC(=O)NCCC[C@H](NC(=O)CCCCCCCCCCCCCCCCC(=O)O)C(=O)O)C(=O)O)CSCC(=O)N[C@@H](Cc2ccc(F)cc2)C(=O)N2CCCC[C@H]2C(=O)N[C@@H](CC(=O)O)C(=O)N2CCC[C@H]2C(=O)N[C@@H](CN)C(=O)N[C@@H](CC(C)C)C(=O)N2C[C@H](O)C[C@H]2C(=O)N[C@@H](Cc2c[nH]c3ccccc23)C(=O)N[C@@H](CCN)C(=O)N[C@@H](Cc2cn(CC(=O)O)c3ccccc23)C(=O)N1C` [Example 13145] ({CH2CO}-[Phe(4-F)][Pip]DP[Dap]L[Hyp]W[Dab][Trp(1-CH2COOH)][NMeNle][NMeNle]LCGD(δOrn(Nα-Octadecanedioyl))-OH; thioether N-14) has an IC50 of 0.01 to 0.099 µM. In the case of `CCCC[C@H]1C(=O)N(C)[C@@H](CCCC)C(=O)N[C@@H](CCCNC(=N)N)C(=O)N[C@H](C(=O)NCC(=O)NCCCOCCOCCOCCCNC(=O)CCC(=O)NCCCCCCCCCCC(=O)O)CSCC(=O)N[C@@H](Cc2ccc(O)cc2)C(=O)N(C)[C@@H](C)C(=O)N[C@@H](CC(=O)O)C(=O)N2CCC[C@H]2C(=O)N[C@@H](Cc2cnc[nH]2)C(=O)N[C@@H](CC(C)C)C(=O)N2C[C@H](O)C[C@H]2C(=O)N[C@@H](Cc2c[nH]c3ccccc23)C(=O)N[C@@H](CO)C(=O)N[C@@H](Cc2c[nH]c3ccccc23)C(=O)N1C` [Example 11068] ({CH2CO}-Y[NMeA]DPHL[Hyp]WSW[NMeNle][NMeNle]RCG-X14; thioether N-14), the IC50 is reported as 0.0003 to 0.0099 µM. For `C#CC[C@H](NC(=O)CNC(=O)[C@@H]1CSCC(=O)N[C@@H](Cc2ccc(O)cc2)C(=O)N(C)[C@@H](C)C(=O)N[C@@H](CC(=O)O)C(=O)N2CCC[C@H]2C(=O)N[C@@H](CN)C(=O)N[C@@H](CC(C)C)C(=O)N2C[C@H](O)C[C@H]2C(=O)N[C@@H](Cc2c[nH]c3ccccc23)C(=O)N[C@@H](CCN)C(=O)N[C@@H](Cc2cn(CC(=O)O)c3ccccc23)C(=O)N(C)[C@@H](CCCC)C(=O)N(C)[C@@H](CCCC)C(=O)N[C@@H](CCC(=O)O)C(=O)N1)C(=O)O` [INT130AE] ({CH2CO}-Y[NMeA]DP[Dap]L[Hyp]W[Dab][Trp(1-CH2COOH)][NMeNle][NMeNle]ECG[Pra]-OH; thioether N-14), the IC50 was 0.01 to 0.099 µM. With `CCCCCCCC[C@H](NC(=O)CNC(=O)CNC(=O)CNC(=O)[C@@H]1CSCC(=O)N[C@@H](Cc2ccc(O)cc2)C(=O)N(C)[C@@H](C)C(=O)N[C@@H](CC(N)=O)C(=O)N2CCC[C@H]2C(=O)N[C@@H](CN)C(=O)N[C@@H](CC(C)C)C(=O)N2C[C@H](O)C[C@H]2C(=O)N[C@@H](Cc2c[nH]c3ccccc23)C(=O)N[C@@H](CCN)C(=O)N[C@@H](Cc2cn(CC(=O)O)c3ccccc23)C(=O)N(C)[C@@H](CCCC)C(=O)N(C)[C@@H](CCCC)C(=O)N[C@@H](CC(C)C)C(=O)N1)C(=O)O` [Example 11103] ({CH2CO}-Y[NMeA]NP[Dap]L[Hyp]W[Dab][Trp(1-CH2COOH)][NMeNle][NMeNle]LCGGG[Gly(octyl)]-OH; thioether N-14) the IC50 was 0.01 to 0.099 µM. Compound `CCCC[C@H]1C(=O)N(C)[C@@H](CCCC)C(=O)N[C@@H](CC(C)C)C(=O)N[C@H](C(=O)NCC(=O)N[C@@H](CC(=O)NCC[C@H](NC(=O)CCCCCCCCCCCCCCCCC(=O)O)C(=O)O)C(=O)O)CSCC(=O)N[C@@H](Cc2ccc(O)cc2)C(=O)N2CCCC[C@H]2C(=O)N[C@@H](CC(N)=O)C(=O)N2CCC[C@H]2C(=O)N[C@@H](CN)C(=O)N[C@@H](CC(C)C)C(=O)N2C[C@H](O)C[C@H]2C(=O)N[C@@H](Cc2c[nH]c3ccccc23)C(=O)N[C@@H](CCN)C(=O)N[C@@H](Cc2cn(CC(=O)O)c3ccccc23)C(=O)N1C` [Example 13144] ({CH2CO}-Y[Pip]NP[Dap]L[Hyp]W[Dab][Trp(1-CH2COOH)][NMeNle][NMeNle]LCGD(X9)-OH; thioether N-14) has an IC50 of 0.01 to 0.099 µM.
